A word on the IC50: it is the concentration at which inhibition is half-maximal.

Our source for the IC50 and inhibition values is patent US5332726A, “Antithrombotic peptides and pseudopeptides” (Rhone-Poulenc Rorer Pharmaceuticals Inc., priority 1992, dated 1994).

Where two headings read alike, the source gives them in different places. Non-standard residues stand in square brackets, D forms with d. Residues, ends and D or L forms follow the SMILES beside them. NMeV = CN[C@H](C(=O)O)C(C)C; Sar = CNCC(=O)O

In assay [1] the target is thrombin-stimulated platelets (Homo sapiens, UniProt P05106+P08514). Briefly: Fibrinogen-Binding Assay (125I-fibrinogen binding to platelets).
Sequence of thrombin-stimulated platelets (P08514 32-1039): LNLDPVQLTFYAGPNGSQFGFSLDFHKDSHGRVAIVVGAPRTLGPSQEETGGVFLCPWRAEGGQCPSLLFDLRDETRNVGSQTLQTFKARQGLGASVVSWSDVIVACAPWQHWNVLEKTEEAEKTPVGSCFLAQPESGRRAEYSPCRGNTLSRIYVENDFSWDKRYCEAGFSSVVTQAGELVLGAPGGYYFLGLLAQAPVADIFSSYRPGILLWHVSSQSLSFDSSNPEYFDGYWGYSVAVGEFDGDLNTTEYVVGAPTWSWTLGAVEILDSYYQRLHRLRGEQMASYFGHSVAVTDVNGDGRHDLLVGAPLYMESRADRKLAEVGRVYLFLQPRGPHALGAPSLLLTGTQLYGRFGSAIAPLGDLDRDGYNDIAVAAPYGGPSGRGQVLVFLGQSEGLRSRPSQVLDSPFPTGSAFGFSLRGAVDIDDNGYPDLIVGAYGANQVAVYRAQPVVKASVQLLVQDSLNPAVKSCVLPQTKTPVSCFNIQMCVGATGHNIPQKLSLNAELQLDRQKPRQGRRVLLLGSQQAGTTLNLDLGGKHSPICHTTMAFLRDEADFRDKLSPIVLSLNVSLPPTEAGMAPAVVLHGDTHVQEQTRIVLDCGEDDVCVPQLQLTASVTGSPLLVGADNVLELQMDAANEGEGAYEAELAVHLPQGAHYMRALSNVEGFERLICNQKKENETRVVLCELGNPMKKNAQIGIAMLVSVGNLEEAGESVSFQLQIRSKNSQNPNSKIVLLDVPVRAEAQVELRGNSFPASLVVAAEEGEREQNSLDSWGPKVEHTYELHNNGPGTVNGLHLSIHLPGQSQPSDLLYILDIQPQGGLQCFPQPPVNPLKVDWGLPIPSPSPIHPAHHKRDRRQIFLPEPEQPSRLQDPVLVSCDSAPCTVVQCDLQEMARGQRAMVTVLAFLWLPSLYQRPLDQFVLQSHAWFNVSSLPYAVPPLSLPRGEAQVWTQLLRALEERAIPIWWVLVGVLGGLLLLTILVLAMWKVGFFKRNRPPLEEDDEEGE
Sequence of thrombin-stimulated platelets (P05106 27-788): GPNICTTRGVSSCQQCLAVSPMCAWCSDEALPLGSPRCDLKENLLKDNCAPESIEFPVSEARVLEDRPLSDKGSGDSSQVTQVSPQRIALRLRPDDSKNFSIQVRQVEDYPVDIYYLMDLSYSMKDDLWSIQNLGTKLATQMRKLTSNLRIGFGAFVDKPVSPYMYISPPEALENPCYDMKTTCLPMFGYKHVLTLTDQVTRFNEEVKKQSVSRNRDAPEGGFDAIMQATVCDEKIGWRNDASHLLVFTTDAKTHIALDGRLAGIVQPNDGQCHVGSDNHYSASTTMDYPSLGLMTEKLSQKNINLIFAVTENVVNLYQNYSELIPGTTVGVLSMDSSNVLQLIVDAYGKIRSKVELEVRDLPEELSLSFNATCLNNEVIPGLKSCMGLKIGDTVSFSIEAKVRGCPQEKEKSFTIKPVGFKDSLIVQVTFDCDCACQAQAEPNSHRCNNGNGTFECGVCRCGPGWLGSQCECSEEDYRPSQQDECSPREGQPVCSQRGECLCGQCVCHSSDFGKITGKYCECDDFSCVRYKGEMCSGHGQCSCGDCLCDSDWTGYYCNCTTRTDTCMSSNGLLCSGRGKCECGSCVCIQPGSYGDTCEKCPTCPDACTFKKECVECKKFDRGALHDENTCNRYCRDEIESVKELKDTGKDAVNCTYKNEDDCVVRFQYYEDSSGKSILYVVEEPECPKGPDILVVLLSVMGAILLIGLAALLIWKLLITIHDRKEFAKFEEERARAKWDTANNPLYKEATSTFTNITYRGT
For assay [2], the target named is fixed activated platelets (Homo sapiens, UniProt P05106+P08514). Briefly: Platelet Aggregation Assay (fibrinogen-mediated aggregation of fixed-activated platelets). Type of assay: cell-based. In outline: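 Activated platelets fixed with 0.50% paraformaldehyde for 30 min at room temperature. They were then pre-incubated 1 min with test compound before aggregation was triggered by human fibrinogen at 250 μg/ml final. Aggregation recorded on an aggregometer.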
Sequence of fixed activated platelets (P08514 32-1039): as the sequence (P08514 32-1039) above
Sequence of fixed activated platelets (P05106 27-788): as the sequence (P05106 27-788) above

Where [3] appears, read: read-out: Inhibition of Fibrinogen Mediated Platelet Aggregation % inhibition at 25 μM.
The mark [4] stands for this setting: 125I-fibrinogen 0.176 μmol/liter, thrombin-stimulated platelets; read-out: Inhibition of 125I-Fibrinogen Binding to Platelets IC50.
[5] abbreviates: fixed activated platelets, human fibrinogen 250 μg/ml; read-out: Inhibition of Fibrinogen Mediated Platelet Aggregation IC50.
The mark [6] stands for this setting: read-out: Inhibition of Fibrinogen Mediated Platelet Aggregation % inhibition at 100 μM.

Take `CC(C)[C@H](NC(=O)[C@H](CC(=O)O)NC(=O)Cn1nnnc1CCCCCNC(=N)N)C(=O)O` [[5-(5'-Guanidinopentyl)Tetrazol-1-yl]-Acetyl-L-Aspartyl-L-Valine]: the half-inhibitory concentration (IC50) in assay [1] (read-out: Inhibition of 125I-Fibrinogen Binding to Platelets IC50; 125I-fibrinogen 0.176 μmol/liter, thrombin-stimulated platelets) was 2200 nM; in assay [2] (read-out: Inhibition of Fibrinogen Mediated Platelet Aggregation IC50; fixed activated platelets, human fibrinogen 250 μg/ml), greater than 25 µM. The inhibition at 25 µM in assay [2] (setting [3]) stood at 40%.

As for `CC[C@H](C)[C@H](NC(=O)[C@H](CC(=O)O)NC(=O)CCCCCCCCNC(=N)N)C(=O)N[C@H](CCCNC(=N)N)C(=O)O` [9-Guanidinononanoyl-L-aspartyl-L-isoleucyl-D-arginine], the IC50 was determined as 15000 nM in assay [1] (setting [4]) and 2 µM in assay [2] (setting [5]). For the same compound, the inhibition at 25 µM in assay [2] (setting [3]) amounted to 97%.

In the case of `CC(C)[C@H](NC(=O)[C@H](CC(=O)O)NC(=O)CN(C)C(=O)CCCCCn1ccnc1-c1ccccc1)C(=O)O` [6-(2-Phenylimidazol-1-yl)hexanoyl-sarcosyl-L-aspartyl-L-valine], the IC50 in assay [1] (setting [4]) is 380 nM; in assay [2] (setting [5]) it was 5.6 µM. In addition, the inhibition at 25 µM in assay [2] (setting [3]) was determined as 84%.

On to `CCCC[C@H](NC(=O)[C@H](CC(=O)O)NC(=O)CCCCCCCCNC(=N)N)C(=O)N[C@@H](CCCNC(=N)N)C(=O)O` [9-Guanidinononanoyl-L-aspartyl-L-norleucyl-L-arginine], for which the IC50 is 210 nM in assay [1] (setting [4]) and 0.3 µM in assay [2] (setting [5]). Besides, the inhibition at 25 µM in assay [2] (setting [3]) turned out to be 95%.

On to `CC(C)[C@H](NC(=O)[C@H](CC(=O)O)NC(=O)CNC(=O)CCCCCNC(=N)N)C(=O)O` [6-Guanidinohexanoyl-glycyl-L-aspartyl-L-valine], for which the half-inhibitory concentration (IC50) in assay [1] (setting [4]) is 1400 nM; in assay [2] (setting [5]), 6.5 µM. Besides, the inhibition at 25 µM in assay [2] (setting [3]) turned out to be 90%.

Consider `N=C(N)NCCCCC(=O)NCC(=O)N[C@@H](CC(=O)O)C(=O)N1CCc2ccccc2C1` [2-[N-(5-guanidinopentanoyl)glycyl-L-aspartyl]-1,2,3,4-tetrahydroisoquinoline], for which the concentration for half-maximal inhibition (IC50) was found to be 130000 nM in assay [1] (setting [4]) and 20.4 µM in assay [2] (setting [5]). The inhibition at 100 µM in assay [2] (setting [6]) came to 48%.

As for `CC(C)[C@H](NC(=O)[C@H](CC(=O)O)NC(=O)CN(C)C(=O)[C@@H](N)CCCNC(=N)N)C(=O)O` [L-arginylsarcosyl-L-aspartyl-L-valine] (H-R[Sar]DV-OH), the IC50 in assay [1] (setting [4]) is 14000 nM; in assay [2] (setting [5]) it was 14 µM. In assay [2] (setting [6]), the inhibition at 100 µM came to 92%.

Turning to `CC(C)[C@@H](C(=O)O)N(C)C(=O)[C@H](CC(=O)O)NC(=O)CNC(=O)[C@@H](N)CCCNC(=N)N` [L-arginylglycyl-L-aspartyl-L-(N-methyl)-valine] (H-RGD[NMeV]-OH), the inhibition at 50 µg/mL in assay [1] (read-out: Inhibition of 125I-Fibrinogen Binding to Platelets: Inhibited <50% at 50 μg/ml) was less than 50%. Also, in assay [2] (setting [5]), the IC50 turned out to be 160 µM. In addition, the inhibition at 100 µM in assay [2] (setting [6]) came to 30%.

As to `CC(C)[C@H](NC(=O)[C@H](CC(=O)O)NC(=O)CN(C)C(=O)CCCCn1ccnc1)C(=O)O` [5-(Imidazol-1-yl)-pentanoyl-sarcosyl-L-aspartyl-L-valine], the IC50 in assay [1] (setting [4]) turned out to be 150 nM; in assay [2] (setting [5]), 1.5 µM. Further, the inhibition at 25 µM in assay [2] (setting [3]) is 95%.

On to `CCN(CC(=O)N[C@@H](CC(=O)O)C(=O)N[C@@H](Cc1c[nH]c2ccccc12)C(=O)O)C(=O)CCCCCNC(=N)N` [6-Guanidinohexanoyl-N-(ethyl)glycyl-L-aspartyl-L-tryptophan], for which the figures for the IC50 in assay [1] (setting [4]) and in assay [2] (setting [5]) were 130 nM and 1.3 µM, respectively. Further, the inhibition at 25 µM in assay [2] (setting [3]) turned out to be 91%.

Regarding `CC(C)[C@H](NC(=O)[C@H](CC(=O)O)NC(=O)/C=C/CCCCCCNC(=N)N)C(=O)O` [9-Guanidinonon-2-(E)-enoyl-L-aspartyl-L-valine], the IC50 in assay [1] (setting [4]) came to 430 nM. Besides, in assay [2] (setting [3]), the inhibition at 25 µM came out at 24%.

Consider `CC(C)[C@H](NC(=O)[C@H](CC(=O)O)NC(=O)CNC(=O)CCCNC(=N)N)C(=O)O` [4-Guanidinobutanoyl-glycyl-L-aspartyl-L-valine], for which the IC50 is 10000 nM in assay [1] (setting [4]) and 21.9 µM in assay [2] (setting [5]). In assay [2] (setting [3]), the inhibition at 25 µM was determined as 43%.

For `CCC(CCCCCCNC(=N)N)C(=O)NC(CC(=O)O)C(=O)N[C@H](C(=O)O)C(C)C` (mixture of isomers) [8-Guanidino-2-(R,S)-ethyl-octanoyl-L-aspartyl-L-valine], the 50% inhibitory concentration (IC50) in assay [1] (setting [4]) is greater than 200000 nM. In addition, the inhibition at 25 µM in assay [2] (setting [3]) was determined as 30%.
